Experimental findings from US7939546B2, “Quinoline derivatives for modulating DNA methylation” (SuperGen, Inc., priority 2007, dated 2011) are described below.

The test system of one series is CMV-EE210 cell line. The series can be described thus: Toxicity (TD50, cell viability) reported with the GFP assay. The settings on record: for TD50: Dose at which cells are >50% viable. As for the experimental part:
(§1) The demethylating activity of non-bis-quaternary 4-anilinoquinolines were tested in a cell-based GFP (green fluorescent protein) assay. This assay has a GFP gene regulated by the CMV promoter and is sensitive to the methylation of CpG sites within the promoter. A decrease in methylation resulting from exposure to a methylation inhibitor leads to GFP expression and is readily scored. Specifically, the CMV-EE210 cell line containing the epigenetically silenced GFP transgene was used to assay for reactivation of GFP expression by flow cytometry. CMV-EE210 was made by transfecting NIH 3T3 cells with the pTR-UF/UF1/UF2 plasmid (Zolotuhin et al., 1996), which is comprised of pBS(+) (Stratagene, Inc.) containing a cytomegalovirus (CMV) promoter driving a humanized GFP gene adapted for expression in mammalian cells. After transfection, high-level GFP expressing cells were initially selected by FACS analysis and sorting using a MoFlo cytometer (Cytomation, Inc.). […] To screen for reactivation of CMV-EE210, decitabine (at […]) or a test compound (at a concentration of 30-50 μM) was added to complete medium (phenol red free DMEM (Gibco, Life Technologies) supplemented with 10% fetal bovine serum (Hyclone)). Cells were then seeded to 30% confluence (˜5000 cell/well) in 96 well plate containing the test compounds and grown for three days in at 37° C. in 5% CO2. The plates were examined under a fluorescent microscope using a 450-490 excitation filter (13 filter cube, Leica, Deerfield Ill.). Wells were scored g1 positive if 10% of viable cells express GFP, g2 positive if 30% of viable cells express GFP and g3 if greater than 75% of the viable cells express GFP. GFP IC 50 is the concentration of an inhibitor that (like an IC50) is the dose at which the GFP expression level goes from g3 to g1/2.

The target in the next series is DNMT1 (Homo sapiens, UniProt P26358). The series can be described thus: Selective depletion of DNMT1 by Western blot in treated HCT116 cells. Also noted: Protein extracts (equivalent to 100 μg) were isolated from HCT116 cells; endogenous in cells; host or cells: HCT116. The following applies: for % DNMT1 protein level remaining at 5 µM: HCT-116, 5 μM; for % DNMT1 protein level remaining at 10 µM: HCT-116, 10 μM; for % DNMT1 protein level remaining at 100 µM: HCT-116, 100 μM. The format is cell-based. The text has this:
Biol. 2005, 11, 4727-41.]. For DNMT1, commercially available antibodies from Santa Cruz or New England Biolabs were used.

Series [1] relates to CMV-EE210 cell line containing the epigenetically silenced GFP transgene. The series is described as follows: Cell-based GFP assay for demethylating activity (reactivation of silenced GFP transgene). The settings on record: for IC50: read-out: GFP IC50; for GFP Expression Level: test compound 30-50 μM, decitabine at 11 M (so in the source), three days. The method, then:
as §1

Setting [2] is: dose at which the GFP expression level goes from g3 to g1/2.

Structures can show the parent of a compound that is named as a salt. Where two headings read alike, the source gives them in different places.

Sequence of DNMT1 (P26358 whole entry): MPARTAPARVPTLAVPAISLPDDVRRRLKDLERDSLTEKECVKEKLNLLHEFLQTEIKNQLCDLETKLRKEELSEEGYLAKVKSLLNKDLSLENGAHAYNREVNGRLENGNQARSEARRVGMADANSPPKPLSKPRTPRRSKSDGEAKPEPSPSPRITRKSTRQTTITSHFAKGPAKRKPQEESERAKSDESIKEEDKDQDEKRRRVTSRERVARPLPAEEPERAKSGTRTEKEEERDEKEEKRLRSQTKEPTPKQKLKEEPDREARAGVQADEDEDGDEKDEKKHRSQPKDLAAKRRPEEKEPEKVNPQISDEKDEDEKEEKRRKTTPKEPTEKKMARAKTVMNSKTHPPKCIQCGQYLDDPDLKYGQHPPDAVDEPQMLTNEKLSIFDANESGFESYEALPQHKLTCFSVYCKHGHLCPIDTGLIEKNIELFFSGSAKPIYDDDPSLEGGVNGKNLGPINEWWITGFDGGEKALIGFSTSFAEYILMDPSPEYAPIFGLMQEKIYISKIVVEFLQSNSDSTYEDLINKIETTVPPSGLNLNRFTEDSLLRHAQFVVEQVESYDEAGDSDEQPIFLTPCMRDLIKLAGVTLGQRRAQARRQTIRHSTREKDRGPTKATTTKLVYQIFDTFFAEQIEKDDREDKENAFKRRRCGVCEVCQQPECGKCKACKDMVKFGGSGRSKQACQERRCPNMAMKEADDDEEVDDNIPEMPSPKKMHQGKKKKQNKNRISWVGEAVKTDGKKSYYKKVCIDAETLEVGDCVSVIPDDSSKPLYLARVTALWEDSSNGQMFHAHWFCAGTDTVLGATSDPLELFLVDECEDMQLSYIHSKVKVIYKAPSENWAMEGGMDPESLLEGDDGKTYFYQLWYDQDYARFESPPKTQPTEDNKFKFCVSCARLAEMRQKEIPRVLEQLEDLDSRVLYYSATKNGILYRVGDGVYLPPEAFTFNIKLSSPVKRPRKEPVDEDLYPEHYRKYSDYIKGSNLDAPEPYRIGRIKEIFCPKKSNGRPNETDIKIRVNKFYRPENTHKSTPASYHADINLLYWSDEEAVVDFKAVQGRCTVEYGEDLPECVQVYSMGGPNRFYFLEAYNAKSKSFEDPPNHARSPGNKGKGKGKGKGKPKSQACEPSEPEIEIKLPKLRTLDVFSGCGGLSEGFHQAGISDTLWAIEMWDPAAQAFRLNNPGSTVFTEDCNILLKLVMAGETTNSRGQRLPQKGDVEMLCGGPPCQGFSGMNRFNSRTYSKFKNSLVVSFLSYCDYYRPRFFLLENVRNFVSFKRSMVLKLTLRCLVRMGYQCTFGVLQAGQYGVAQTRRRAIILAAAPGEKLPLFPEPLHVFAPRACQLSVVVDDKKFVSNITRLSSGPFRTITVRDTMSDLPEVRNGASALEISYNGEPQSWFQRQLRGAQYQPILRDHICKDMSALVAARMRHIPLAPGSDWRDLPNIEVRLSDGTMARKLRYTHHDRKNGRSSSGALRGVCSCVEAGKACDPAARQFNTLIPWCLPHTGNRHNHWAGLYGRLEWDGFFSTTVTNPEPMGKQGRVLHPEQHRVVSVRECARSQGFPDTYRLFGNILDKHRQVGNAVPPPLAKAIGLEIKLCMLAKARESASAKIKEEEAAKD

Turning to `C[n+]1ccc(Nc2cccc(C(=O)Nc3ccc(Nc4ccnc5ccccc45)cc3)c2)cc1.Cl.[Cl-]` [Cpd. C, 4-[4-({3-[(1-methyl-4-pyridiniumyl)amino]benzoyl}amino)anilino]quinolinium dichloride], the TD50 with CMV-EE210 cell line was 25 µM. Moreover, the results for the “% DNMT1 Level” value on DNMT1 (5 μM), at DNMT1 (10 μM) and at DNMT1 (100 μM) were 31%, 33% and 34%, respectively. Further, the IC50 in series [1] (setting [2]) was found to be 50 µM. The “GFP Expression Level” value in series [1] is “g1 (g1 positive if 10% of viable cells express GFP)”.

`C[n+]1ccc(Nc2ccc(C(=O)Nc3ccc(Nc4ccnc5ccccc45)cc3)cc2)cc1.Cl.[Cl-]` [Cpd. D, 4-[4-({4-[(1-methyl-4-pyridiniumyl)amino]benzoyl}amino)anilino]quinolinium dichloride] came in with a TD50 with CMV-EE210 cell line of 12.5 µM. In addition, the “% DNMT1 Level” value on DNMT1 (5 μM) was found to be 131%; at DNMT1 (10 μM) it was 103%; at DNMT1 (100 μM) it was 74%. The “GFP Expression Level” value in series [1] is “g1 (g1 positive if 10% of viable cells express GFP)”.

In the series on CMV-EE210 cell line, `Cc1cc(Nc2ccc(NC(=O)c3ccc(Nc4ccnc5ccccc45)cc3)cc2)nc(N)n1` [Cpd. E, N-(4-(2-amino-6-methylpyrimidin-4-ylamino)phenyl)-4-(quinolin-4-ylamino)benzamide hydrochloride] returned a TD50 of 25 µM. The “% DNMT1 Level” value at DNMT1 (5 μM) came to 11%. Besides, the “% DNMT1 Level” value on DNMT1 (10 μM) was determined as 0.5%. Further, in series [1], the IC50 turned out to be 12 µM and the “GFP Expression Level” value is “g1 (g1 positive if 10% of viable cells express GFP)”.

With `C[n+]1ccc(Nc2ccc(C(=O)Nc3ccc(Nc4ccnc5ccc(N)cc45)cc3)cc2)cc1` [Cpd. N, 4-[4-({4-[(6-amino-4-quinolinyl)amino]anilino}carbonyl)anilino]-1-methylpyridinium chloride], the TD50 in the series with CMV-EE210 cell line is 50 µM. In addition, on DNMT1, the % DNMT1 protein level remaining at 5 µM turned out to be 160%, the % DNMT1 protein level remaining at 10 µM was determined as 152% and the % DNMT1 protein level remaining at 100 µM is 130%. In series [1], the IC50 amounted to 100 µM and the “GFP Expression Level” value is given as “g2 (g2 positive if 30% of viable cells express GFP)”.

In the series on CMV-EE210 cell line, `C[n+]1ccc(Nc2cccc(C(=O)Nc3ccc(Nc4ccnc5cc(N)ccc45)cc3)c2)cc1.Cl.[Cl-]` [Cpd. X, 7-amino-4-[4-({3-[(1-methyl-4-pyridiniumyl)amino]benzoyl}amino)anilino]quinolinium dichloride] came in with a TD50 of 25 µM. Also, the figures for the “% DNMT1 Level” value on DNMT1 (5 μM), on DNMT1 (10 μM) and on DNMT1 (100 μM) were 49%, 98% and 73%, respectively. In addition, in series [1] (setting [2]), the IC50 came out at 50 µM. For the same molecule, the “GFP Expression Level” value in series [1] is given as “g2 (g2 positive if 30% of viable cells express GFP)”.

As for `C[n+]1ccc(Nc2ccc(C(=O)Nc3ccc(Nc4ccnc5cc(N)ccc45)cc3)cc2)cc1` [Cpd. Y, 4-[4-({4-[(7-amino-4-quinolinyl)amino]anilino}carbonyl)anilino]-1-methylpyridinium chloride], the TD50 in the series with CMV-EE210 cell line was 25 µM. Further, at DNMT1, the % DNMT1 protein level remaining at 5 µM stood at 93%, the % DNMT1 protein level remaining at 10 µM amounted to 63% and the % DNMT1 protein level remaining at 100 µM came to 77%. Moreover, in series [1], the half-inhibitory concentration (IC50) was 100 µM and the “GFP Expression Level” value was “g1 (g1 positive if 10% of viable cells express GFP)”.

`CN(C)c1ccc2c(Nc3ccc(C(=O)Nc4cccc(Nc5cc[n+](C)cc5)c4)cc3)ccnc2c1.Cl.[Cl-]` [Cpd. Z, 7-(dimethylamino)-4-[4-({3-[(1-methyl-4-pyridiniumyl)amino]anilino}carbonyl)anilino]quinolinium dichloride]: in the series on CMV-EE210 cell line, the “toxicity relative to decitabine” value is “less than one-half as toxic as decitabine”. The molecule also displayed a TD50 in the series on CMV-EE210 cell line of 25 µM. Moreover, the “% DNMT1 Level” value on DNMT1 (5 μM) was found to be 83%; on DNMT1 (10 μM), 115%; at DNMT1 (100 μM), 87%. Moreover, in series [1] (setting [2]), the IC50 is 1 µM.

Regarding `Nc1ncn([C@H]2C[C@H](O)[C@@H](CO)O2)c(=O)n1` [Decitabine, 5-aza-2′-deoxycytidine, reference compound], the TD50 in the series on CMV-EE210 cell line stood at 12.5 µM. Further, the % DNMT1 protein level remaining at 5 µM on DNMT1 fell in the range of 0 to 5%. Also, the IC50 in series [1] (setting [2]) worked out at 0.39 µM.
